How the values were obtained:
Female CBA/Ca mice = assay: murine local lymph node assay (LLNA); type: in vivo
Protocol: Female CBA/Ca mice, 7 to 9 weeks of age, were purchased from NOVA SCB Charles River, Germany. The mice were housed in HEPA-filtered air flow cages and kept on standard laboratory diet and water ad lib. The regional ethics committee, Jordbruksverket, approved the protocol and the procedure was performed in accordance with the guidelines.
A previously published protocol[24] of the LLNA[34] was used to assess the sensitization potential of the isosorbide bis-epoxides 1–3. The purity of the assessed isosorbide bis-epoxides was >99% (GC/MS or LC/MS) before testing of sensitization potential. The isosorbide bis-epoxides were tested in five different concentrations; 1: 3.9 mM (0.10% w/v), 39 mM (1.0% w/v), 190 mM (5.0% w/v), 390 mM (10% w/v), and 770 mM (20% w/v); 2: 21 mM (1.0% w/v), 54 mM (2.5% w/v), 110 mM (5.0% w/v), 210 mM (10% w/v), and 540 mM (25% w/v); and 3: 2.3 mM (0.10% w/v), 23 mM (1.0% w/v), 110 mM (5.0% w/v), 230 mM (10% w/v), and 460 mM (20% w/v). A detailed description is given in Supporting Information.
The three isosorbide bis-epoxides were evaluated for sensitization potential in vivo with the murine LLNA (Figure 2). The stimulation index (SI) is defined as the ratio between the dpm/lymph node for the test group and the control group. Test materials that at one or more concentrations cause an SI greater than 3 are considered positive in the LLNA. The estimated concentration required to induce an SI of 3 (EC3) is used to determine the sensitizing potency of the test compound. […] Isosorbide bis-epoxide 1 gave an EC3 value of 0.17 M (4.4%), 3 gave an EC3 value of 0.36 M (16%), and no EC3 value was obtained for 2 (for full results, see the Supporting Information, Table S1).
A previously published protocol1 of the LLNA2 was used to assess the sensitization potential of the isosorbide bis-epoxides 1-3. The purity of the assessed isosorbide bis-epoxides was >98% according to LC/MS analysis. The isosorbide bis-epoxides were tested in five different concentrations; 1: 3.87 mM […]
456 mM (20% w/v). Briefly, mice in groups of three received 25 µL of test compound dissolved in the vehicle acetone/olive oil (4:1 v/v), on the dorsum of the ears for three consecutive days (day 0, 1, and 2). A sixth group of four mice was treated with vehicle only (control group). On day 5, all mice were injected intravenously via the tail vein with 250 µL of phosphate buffered saline (PBS) (pH 7.4, 137 mM NaCl, 2.7 mM KCl, and 10 mM phosphate buffer) containing 20 µCi [methyl-3H]thymidine. Five hours later the mice were sacrificed, the draining lymph nodes were excised and pooled for each group, followed by preparation of single-cell suspensions of lymph nodes in PBS by using cell strainers (Falcon; BD Labware, Franklin Lakes, NJ, USA; pore size, 70 µm). Cell suspensions were washed twice with PBS, precipitated with trichloroacetic acid (TCA) (5%), and stored at 4 °C overnight. The samples were then centrifuged, resuspended in TCA (5%, 1 mL), and transferred to scintillation cocktail (10 mL) (EcoLume INC Radiochemicals, Solon, OH, USA). The incorporation of [methyl-3H]thymidine into DNA was measured by b-scintillation counting with a Beckman LS 6000TA instrument. Results are expressed as the mean dpm/lymph node for each experimental group and as stimulation index (SI). The SI is defined as the ratio between dpm/lymph node for the test group and the control group. Test materials that at one or more concentrations cause an SI greater than 3 are considered positive in the LLNA. EC3 values (the estimated concentration required to induce an SI of 3) were calculated by linear interpolation.
Results from the Local Lymph Node Assay
Table S1: Full results from the LLNA of bis-epoxides 1-3a
Test Test [3H]thymidine SI EC value

AcPHCKRM = assay: peptide depletion with AcPHCKRM; conditions: peptide 1 mM, test compound 10 mM, DMSO/phosphate buffer pH 7.4 (1:1), room temperature
Protocol: Liquid chromatography-mass spectroscopy (LC-MS) analyses of peptide depletion experiments were performed using electrospray ionization (ESI) on a Hewlett-Packard 1100 HPLC/MS (Agilent Technologies, Waldbronn, Germany). The system included a vacuum degasser, a binary pump, an autoinjector, a column thermostat, a diode array detector, and a single quadrupole mass spectrometer. The high-performance liquid chromatography (HPLC) system was equipped with a HyPURITY C18 column (150 × 3 mm i.d., particle size 3 μm, Thermo Hypersil-Keystone, Thermo Electron Corp., Bellafonte, PA, USA). The mobile phase consisted of 0.005% pentafluoropropanoic acid, 0.1% acetic acid, and 5% acetonitrile in water (solvent A) and 0.005% pentafluoropropanoic acid, 0.1% acetic acid, and 50% water in acetonitrile (solvent B). […] The gradient conditions used were as follows: 0-8% B (0-3 min), 8-10% B (3-15 min), 10-100% B (15-18 min), 100% B (18-30 min), 100-0% B (30-30.1 min), 0% B (30.1-40 min). The ESI interface was used in positive ionization mode with the following spray chamber settings: nebulizer pressure, 35 psi; capillary voltage, 3000 V; drying gas temperature, 350 °C; and drying gas flow rate, 12 L/min. The fragmentor voltage was set to 120 V. The mass spectrometer was used in scan mode detecting molecular ions with m/z values ranging from 50 to 1800. All solvents were degassed with argon prior to use.

[1] = thermogravimetric analysis (TGA) of polymers formed with TETA; type: physicochemical; conditions: polymer cured with TETA, TGA under nitrogen
Protocol: Detailed information on the polymerization procedure and the thermogravimetric analysis (TGA) is given in the Supporting Information.
Pilot experiments using TGA were conducted to investigate the properties of the polymers formed from isosorbide bis-epoxides 1–3 and the commonly used curing agent TETA (Table 2 and Figure 6). The onset of degradation is described by the initial decomposition temperature (IDT) and is an indication of the thermal stability of the cured epoxy resins. The maximum weight loss rate (Rmax) and the temperature (Tmax) at Rmax were taken from the peak values of the thermograms. The activation energies (Ea) for the decomposition of the polymers were calculated from the thermograms based on the Horowitz–Metzger equation.[43],[44]

[2] = estimated concentration required to induce an SI of 3, linear interpolation

SI (Female CBA/Ca mice; test concentration 1.0% w/v)	[3H]thymidine incorporation (dpm/lymph node) (Female CBA/Ca mice; test concentration 1.0% w/v)	SI (Female CBA/Ca mice; test concentration 5.0% w/v)	[3H]thymidine incorporation (dpm/lymph node) (Female CBA/Ca mice; test concentration 5.0% w/v)	SI (Female CBA/Ca mice; test concentration 10% w/v)	[3H]thymidine incorporation (dpm/lymph node) (Female CBA/Ca mice; test concentration 10% w/v)	Ea (activation energy for the decomposition of the cured epoxy resins) [1]	IDT (initial decomposition temperature) [1]	Rmax (maximum weight loss rate) [1]	Tmax (temperature at the maximum rate of weight loss) [1]	Structure (SMILES)	reactivity with the model peptide AcPHCKRM (AcPHCKRM)	also measured
1.06	455 dpm/lymph node	1.10	473 dpm/lymph node	1.07	459 dpm/lymph node	15.8 kcal/mol	361 °C	–0.373 %/°C	411 °C	O=C(OC1COC2C(OC(=O)c3ccc(CC4CO4)cc3)COC12)c1ccc(CC2CO2)cc1 [Compound 2, (3R,3aR,6S,6aR)-3,6-O-Bis[4-(3,4-epoxypropyl)benzoyl]-1,4:3,6-dianhydro-D-glucitol]	least reactive	LLNA outcome (Female CBA/Ca mice; in concentrations up to 25% w/v (0.54 M)): nonsensitizing; SI (Female CBA/Ca mice; test concentration 2.5% w/v): 1.43; [3H]thymidine incorporation (dpm/lymph node) (Female CBA/Ca mice; test concentration 2.5% w/v): 614 dpm/lymph node; SI (Female CBA/Ca mice; test concentration 25% w/v): 2.27; [3H]thymidine incorporation (dpm/lymph node) (Female CBA/Ca mice; test concentration 25% w/v): 972 dpm/lymph node
1.56	706 dpm/lymph node	2.55	1158 dpm/lymph node	2.85	1292 dpm/lymph node	18.2 kcal/mol	329 °C	–0.722 %/°C	382 °C	c1cc(CC2CO2)ccc1CO[C@H]1CO[C@H]2[C@@H]1OC[C@H]2OCc1ccc(CC2CO2)cc1 (stereo partly drawn) [Compound 3, (3R,3aR,6S,6aR)-3,6-O-Bis[4-(3,4-epoxypropyl)benzyl]-1,4:3,6-dianhydro-D-glucitol]	slightly less reactive	EC3 value (%) (Female CBA/Ca mice; as printed in main text): 16%; sensitizing potency classification (Female CBA/Ca mice; classified by EC3): moderate (EC3 > 2%, moderate); EC3 value (Female CBA/Ca mice; [2]): 0.36 M; EC3 value (% w/v) (Female CBA/Ca mice; [2]): 15.8 % w/v; SI (Female CBA/Ca mice; test concentration 0.10% w/v): 1.06; [3H]thymidine incorporation (dpm/lymph node) (Female CBA/Ca mice; test concentration 0.10% w/v): 479 dpm/lymph node; SI (Female CBA/Ca mice; test concentration 20% w/v): 3.11; [3H]thymidine incorporation (dpm/lymph node) (Female CBA/Ca mice; test concentration 20% w/v): 1412 dpm/lymph node
